In patent publication US10544134B2, “4-substituted coumarin derivatives and preparation methods and uses thereof” (SI CHUAN UNIVERSITY, priority 2015, dated 2020):
Where two headings read alike, the source gives them in different places.

What was measured:
Experiment in all cases: Tumor cell proliferation inhibitory activity test in vitro (MTT)
[1] = tested on: hepatocellular carcinoma cell HEPG2; type: cell-based, human; conditions: read-out: IC50 of compounds for tumor cells, Activity, HEPG2
Excerpt: (§1) Human non-small cell lung cancer cell line NCI-H460, human small cell lung cancer cell line NCI-H446, human hepatocellular carcinoma cell strain HepG2, human colon carcinoma cell strain HCT116, human prostate cancer PC-3, human melanoma A375, colon carcinoma cell HCT-8, breast cancer cell MCF-7, ovarian cancer cell A2780s, drug-resistant ovarian cancer cell A2780/T, drug-resistant colon cancer cell HCT-8/T and doxorubicin-resistant breast cancer cell MCF-7/ADR are obtained from American Type Culture Collection (ATCC) and are cultured and preserved by the cell bank of State Key Laboratory of Biotherapy of Sichuan University. Above tumor cells are routinely cultured in DMEM culture medium containing 10% fetal bovine serum, 100 U·mL-1 penicillin and 100 mg·L−1 streptomycin, and in an incubator at 37° C. and with saturated humidity and 5% CO2 concentration.
(§2) Fill diluted cell suspension in the 96-well plate with 1000-10000 cells per well and incubate it in CO2 incubator overnight.
(§3) Replace with new medium containing various concentrations of compounds to be tested for the test group and replace with fresh medium with equal volume for the control group, each group is arranged with 5 parallel wells and incubated in an incubator at 37° C. and with 5% CO2 concentration.
(§4) Discard the supernatant after 72 hours, add 200 μL freshly prepared serum-free medium containing 0.2 mg/mL MTT into each well, continue to incubate at 37° C. for 1-4 hours, then stop incubation, carefully remove the culture supernatant in the wells and add 200 uL DMSO (dimethyl sulfoxide), oscillate with a miniature ultrasonic oscillator for 15-20 minutes to make the crystal fully dissolved and mixed. Determine OD values using a microplate reader at 570 nm with a reference wavelength of 450 nm.
(§5) Draw curves based on the growth inhibition rate for tumor cells of the same sample with different concentrations to get dose-response curve, so as to calculate IC50. Repeat each test for 3 times, measure IC50 (μM) or nanomolor concentration (nM) of compounds in different tumor cells.

melanoma A375 = type: cell-based, human; conditions: read-out: IC50 of compounds for tumor cells, Activity, A375
Excerpt: as §1, §2, §3, §4, §5

prostate cancer PC-3 = type: cell-based, human; conditions: 72 hours, read-out: IC50 of compounds for tumor cells, Activity, PC-3
Excerpt: as §1, §2, §3, §4, §5

[2] = tested on: colon carcinoma cell HCT116; type: cell-based, human; conditions: read-out: IC50 of compounds for tumor cells, Activity, HCT116
Excerpt: as §1, §2, §3, §4, §5

[3] = tested on: non-small cell lung cancer cell line NCI-H460; type: cell-based, human; conditions: read-out: IC50 of compounds for tumor cells, Activity, H460
Excerpt: as §1, §2, §3, §4, §5

breast cancer cell MCF-7 = type: cell-based; conditions: read-out: IC50 of compounds for tumor cells, Activity, MCF-7
Excerpt: as §1, §2, §3, §4, §5

[4] = Homo sapiens, HCT-116, 72 hours
[5] = Homo sapiens, NCI-H460, 72 hours

Row | Compound | IC50 ([1]; 72 hours) [µM] | IC50 (melanoma A375; 72 hours) [µM] | IC50 (prostate cancer PC-3) [µM] | IC50 ([2]; 72 hours) [µM] | IC50 ([3]; 72 hours) [µM] | IC50 (breast cancer cell MCF-7; 72 hours) [µM] | IC50 ([1]; Homo sapiens, HepG2, 72 hours) [µM] | IC50 (melanoma A375; Homo sapiens, A-375, 72 hours) [µM] | IC50 (prostate cancer PC-3; Homo sapiens) [µM] | IC50 [2, 4] [µM] | IC50 [3, 5] [µM] | IC50 (breast cancer cell MCF-7; Homo sapiens, MCF7, 72 hours) [µM]
1 | 4-(N-methyl-N-(4-methoxy-3-(2-methylphenyl-methoxycarbonyl)-benzene)-amino) Coumarin [COUM-63] | 0.1 to 5 | 0.1 to 5 | 0.1 to 5 | 0.1 to 5 | 0.1 to 5 | 0.1 to 5 | – | – | – | – | – | –
2 | 4-(N-methyl-N-(4-methoxy-3-(2-pyrrole ethoxy)-benzene)-amino) Coumarin [COUM-52] | 0.1 to 5 | 0.1 to 5 | 0.1 to 5 | 0.1 to 5 | 0.1 to 5 | 0.1 to 5 | – | – | – | – | – | –
3 | 4-(N-methyl-N-(4-methoxy-3-(3-chlorophenyl-methoxycarbonyl)-benzene)-amino) Coumarin [COUM-62] | 0.1 to 5 | 0.1 to 5 | 0.1 to 5 | 0.1 to 5 | 0.1 to 5 | 0.1 to 5 | – | – | – | – | – | –
4 | 4-(N-methyl-N-(4-methoxy-3-(4-fluorobenzene) methanesulfonate-benzene)-amino) Coumarin [COUM-56] | 0.1 to 5 | 0.1 to 5 | 0.1 to 5 | 0.1 to 5 | 0.1 to 5 | 0.1 to 5 | – | – | – | – | – | –
5 | 4-(N-methyl-N-(4-methoxy-3-((4-ethylbenzene) methoxycarbonyl)-benzene)-amino) Coumarin [COUM-53] | 0.1 to 5 | 0.1 to 5 | 0.1 to 5 | 0.1 to 5 | 0.1 to 5 | 0.1 to 5 | – | – | – | – | – | –
6 | 4-(N-methyl-N-(4-methoxy-3-(furan-2-yl-methoxycarbonyl)-benzene)-amino) Coumarin [COUM-61] | 0.1 to 5 | 0.1 to 5 | 0.1 to 5 | 0.1 to 5 | 0.1 to 5 | 0.1 to 5 | – | – | – | – | – | –
7 | O=c1cc(-c2ccc(-c3cccc(Cl)c3)s2)c2ccccc2o1 [COUM-8, 4-(5-(3-chlorobenzene)thiophene-2-yl)-coumarin] | – | – | – | – | – | – | > 5 | > 5 | > 5 | > 5 | > 5 | > 5
8 | COc1ccc2c(-c3ccc(-c4ccc5c(c4)OCO5)s3)cc(=O)oc2c1 [COUM-11, 4-(5-(3,4-(methylenedioxy)benzene)thiophene-2-yl)-7-methoxyl-coumarin] | – | – | – | – | – | – | > 5 | > 5 | > 5 | > 5 | > 5 | > 5
9 | COc1ccc2c(-c3ccc(-c4ccccc4OC)s3)cc(=O)oc2c1 [COUM-12, 4-(5-(2-methoxybenzene)thiophene-2-yl)-7-methoxyl-coumarin] | – | – | – | – | – | – | > 5 | > 5 | > 5 | > 5 | > 5 | > 5
10 | CCOC(=O)c1cccc(-c2ccc(-c3cc(=O)oc4cc(OC)ccc34)s2)c1 [COUM-13, 4-(5-(3-ethoxycarbonylbenzene)thiophene-2-yl)-7-methoxyl-coumarin] | – | – | – | – | – | – | > 5 | > 5 | > 5 | > 5 | > 5 | > 5
11 | COc1ccc(-c2ccc(-c3cc(=O)oc4ccccc34)o2)cc1 [COUM-15, 4-(5-(4-methoxyphenyl)furan-2-yl)-coumarin] | – | – | – | – | – | – | > 5 | > 5 | > 5 | > 5 | > 5 | > 5
12 | CS(=O)(=O)c1ccc(-c2ccc(-c3cc(=O)oc4ccccc34)o2)cc1 [COUM-16, 4-(5-(4-methylsulfonylphenyl)furan-2-yl)-coumarin] | – | – | – | – | – | – | > 5 | > 5 | > 5 | > 5 | > 5 | > 5
13 | Cc1ccc(-c2ccc(-c3cc(=O)oc4ccccc34)o2)cc1 [COUM-17, 4-(5-(4-methylphenyl)furan-2-yl)-coumarin] | – | – | – | – | – | – | > 5 | > 5 | > 5 | > 5 | > 5 | > 5
14 | COc1ccccc1-c1ccc(-c2cc(=O)oc3ccccc23)o1 [COUM-18, 4-(5-(2-methoxyphenyl)furan-2-yl)-coumarin] | – | – | – | – | – | – | > 5 | > 5 | > 5 | > 5 | > 5 | > 5
15 | O=c1cc(-c2ccc(-c3ccccc3)o2)c2ccccc2o1 [COUM-19, 4-(5-phenylfuran-2-yl)-coumarin] | – | – | – | – | – | – | > 5 | > 5 | > 5 | > 5 | > 5 | > 5
16 | COc1cc(-c2ccc(-c3cc(=O)oc4ccccc34)o2)cc(OC)c1OC [COUM-20, 4-(5-(3,4,5-trimethoxyphenyl)furan-2-yl)-coumarin] | – | – | – | – | – | – | > 5 | > 5 | > 5 | > 5 | > 5 | > 5
17 | O=c1cc(-c2ccc(-c3ccc(Cl)cc3)o2)c2ccccc2o1 [COUM-21, 4-(5-(4-chlorobenzene)furan-2-yl)-coumarin] | – | – | – | – | – | – | > 5 | > 5 | > 5 | > 5 | > 5 | > 5
18 | O=c1cc(-c2ccc(-c3cccc(Cl)c3)o2)c2ccccc2o1 [COUM-22, 4-(5-(3-chlorobenzene)furan-2-yl)-coumarin] | – | – | – | – | – | – | > 5 | > 5 | > 5 | > 5 | > 5 | > 5
19 | COc1ccc2c(-c3ccc(-c4cc(OC)c(OC)c(OC)c4)o3)cc(=O)oc2c1 [COUM-23, 4-(5-(3,4,5-trimethoxybenzene)furan-2-yl)-7-methoxyl-coumarin] | – | – | – | – | – | – | > 5 | > 5 | > 5 | > 5 | > 5 | > 5
20 | COc1ccc2c(-c3ccc(-c4ccc(C)cc4)o3)cc(=O)oc2c1 [COUM-24, 4-(5-(4-methylbenzene)furan-2-yl)-7-methoxyl-coumarin] | – | – | – | – | – | – | > 5 | > 5 | > 5 | > 5 | > 5 | > 5
21 | COc1ccc2c(-c3ccc(-c4ccc5c(c4)OCO5)o3)cc(=O)oc2c1 [COUM-25, 4-(5-(3,4-(methylenedioxy)benzene)furan-2-yl)-7-methoxyl-coumarin] | – | – | – | – | – | – | > 5 | > 5 | > 5 | > 5 | > 5 | > 5
22 | COc1ccc2c(-c3ccc(-c4ccccc4OC)o3)cc(=O)oc2c1 [COUM-26, 4-(5-(2-methoxybenzene)furan-2-yl)-7-methoxyl-coumarin] | – | – | – | – | – | – | > 5 | > 5 | > 5 | > 5 | > 5 | > 5
23 | CCOC(=O)c1cccc(-c2ccc(-c3cc(=O)oc4cc(OC)ccc34)o2)c1 [COUM-27, 4-(5-(3-ethoxycarbonylbenzene)furan-2-yl)-7-methoxyl-coumarin] | – | – | – | – | – | – | > 5 | > 5 | > 5 | > 5 | > 5 | > 5
24 | COc1ccc2c(-c3ccc(-c4ccc(Cl)cc4)o3)cc(=O)oc2c1 [COUM-28, 4-(5-(4-chlorobenzene)furan-2-yl)-7-methoxyl-coumarin] | – | – | – | – | – | – | > 5 | > 5 | > 5 | > 5 | > 5 | > 5
